Data on 13 molecules can be found in patent US20260374782A1, “NEW COMPOUNDS, PROCESSES FOR PREPARING THE SAME AND THEIR USE AS DRUGS” (B&A ONCOMEDICAL, priority 2022, published 2026).

Some results are limits rather than exact numbers.

This assay has as its target T1, NKCC1 (Homo sapiens, UniProt P55011).
T1 construct: endogenous in cells; host or cells: native HEK293 cells
T1 sequence (P55011 1-1212): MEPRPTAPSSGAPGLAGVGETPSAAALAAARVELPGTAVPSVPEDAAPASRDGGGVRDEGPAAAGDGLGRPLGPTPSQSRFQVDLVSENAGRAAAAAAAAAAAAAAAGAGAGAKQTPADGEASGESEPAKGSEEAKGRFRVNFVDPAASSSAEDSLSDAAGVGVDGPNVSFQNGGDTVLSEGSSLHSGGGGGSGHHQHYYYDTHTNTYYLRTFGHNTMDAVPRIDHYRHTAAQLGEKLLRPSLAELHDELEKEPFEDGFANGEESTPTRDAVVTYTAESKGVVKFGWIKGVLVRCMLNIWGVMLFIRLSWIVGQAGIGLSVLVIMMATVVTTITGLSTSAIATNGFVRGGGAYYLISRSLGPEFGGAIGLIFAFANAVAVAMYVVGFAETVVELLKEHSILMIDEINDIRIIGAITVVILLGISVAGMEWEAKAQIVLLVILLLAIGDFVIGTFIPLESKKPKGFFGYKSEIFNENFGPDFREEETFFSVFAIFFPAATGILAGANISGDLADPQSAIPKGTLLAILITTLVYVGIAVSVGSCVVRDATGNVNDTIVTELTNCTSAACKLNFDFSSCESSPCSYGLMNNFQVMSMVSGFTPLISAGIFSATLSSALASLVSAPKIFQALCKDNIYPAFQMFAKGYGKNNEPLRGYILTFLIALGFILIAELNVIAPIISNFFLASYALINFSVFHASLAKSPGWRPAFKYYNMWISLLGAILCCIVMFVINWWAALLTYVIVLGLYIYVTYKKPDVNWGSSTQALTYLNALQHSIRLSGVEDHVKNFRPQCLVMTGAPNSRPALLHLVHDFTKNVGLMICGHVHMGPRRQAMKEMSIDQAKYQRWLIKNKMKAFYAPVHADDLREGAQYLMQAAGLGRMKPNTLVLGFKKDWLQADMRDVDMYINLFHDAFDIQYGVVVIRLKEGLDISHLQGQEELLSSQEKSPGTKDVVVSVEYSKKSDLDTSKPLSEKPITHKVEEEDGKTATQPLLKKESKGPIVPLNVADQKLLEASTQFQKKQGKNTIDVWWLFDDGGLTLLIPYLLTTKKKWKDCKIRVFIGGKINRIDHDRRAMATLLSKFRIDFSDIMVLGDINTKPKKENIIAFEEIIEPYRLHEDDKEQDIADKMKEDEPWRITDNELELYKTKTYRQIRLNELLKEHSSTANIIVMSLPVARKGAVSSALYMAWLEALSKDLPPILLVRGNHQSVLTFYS
Nature of the assay: NKCC1-mediated K+ influx (83Rb tracer uptake) in native HEK293 cells, hypertonic saline, 100 μM ouabain. Type of assay: cell-based. The conditions noted are these: HEK293, no drug = 1000, 20 μM bumetanide = 0; for inhibition at 2 µM: read-out: NKCC1 mediated flux inhibition at 2 μM (%); for inhibition at 20 µM: read-out: NKCC1 mediated flux inhibition at 20 μM (%). Summed up:
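Native cells in slightly hypertonic saline with 100 μM ouabain; 15 min preincubation then 15 min 83Rb uptake (0.25 μCi/mL), scintillation counting normalized to protein. Compounds at 2 μM and 20 μM; flux scaled 1000 (no drug) to 0 (20 μM bumetanide), triplicate dishes.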

As a reminder, the inhibition is the relative decrease from the control value, in per cent. `CCCCNc1cc(C(=O)NCCC(F)(F)F)cc(S(=N)(=O)Nc2ccccc2)c1Oc1ccccc1` (centres unmarked) [Compound 120, 3-(anilinosulfonimidoyl)-5-(butylamino)-4-phenoxy-N-(3,3,3-trifluoropropyl)benzamide]: the inhibition at 2 µM fell in the range of 30 to 50% and the inhibition at 20 µM was in the range of 30 to 50%.
`CCCCNc1cc(C(=O)NOC)cc(S(=N)(=O)NC2CCOCC2)c1Oc1ccccc1` (centres unmarked) [Compound 121, 3-(butylamino)-N-methoxy-4-phenoxy-5-[(tetrahydropyran-4-ylamino)sulfonimidoyl]benzamide]: the inhibition at 2 µM lay in the range of 30 to 50% and the inhibition at 20 µM was 30 to 50%.
Take `CCCCNc1cc(C(=O)NCCOC)cc(S(=N)(=O)NC2CCOCC2)c1Oc1ccccc1` (centres unmarked) [Compound 122, 3-(butylamino)-N-(2-methoxyethyl)-4-phenoxy-5-[(tetrahydropyran-4-ylamino)sulfonimidoyl]benzamide]: the inhibition at 2 µM lay in the range of 30 to 50% and the inhibition at 20 µM fell in the range of 30 to 50%.
Turning to `CCCCNc1cc(C(=O)NCC(F)(F)F)cc(S(=N)(=O)NC2CCOCC2)c1Oc1ccccc1` (centres unmarked) [Compound 123, 3-(butylamino)-4-phenoxy-5-[(tetrahydropyran-4-ylamino)sulfonimidoyl]-N-(2,2,2-trifluoroethyl)benzamide], the inhibition at 2 µM is 30 to 50% and the inhibition at 20 µM fell in the range of 10 to 30%.
In the case of `CCCCNc1cc(C(=O)OC)cc(S(=O)(=O)Nc2ccccc2)c1Oc1ccccc1` [Compound 124, methyl 3-(butylamino)-4-phenoxy-5-(phenylsulfamoyl)benzoate], the inhibition at 2 µM lay within 30 to 50% and the inhibition at 20 µM fell in the range of 30 to 50%.
With `CCCCNc1cc(C(=O)O)cc(S(=O)(=O)Nc2ccccc2)c1Oc1ccccc1` [Compound 125, 3-(butylamino)-4-phenoxy-5-(phenylsulfamoyl)benzoic acid], the inhibition at 2 µM is ≥ 75% and the inhibition at 20 µM was ≥ 75%.
As for `CCCCNc1cc(-c2nnn[nH]2)cc(S(=O)(=O)Nc2ccccc2)c1Oc1ccccc1` [Compound 126, 3-(butylamino)-2-phenoxy-N-phenyl-5-(1H-tetrazol-5-yl)benzenesulfonamide], the inhibition at 2 µM lay within 30 to 50% and the inhibition at 20 µM is ≥ 75%.
The matching figures for `CCCCNc1cc(-c2nc(=O)o[nH]2)cc(S(=O)(=O)Nc2ccccc2)c1Oc1ccccc1` [Compound 127, 3-(butylamino)-5-(5-oxo-2H-1,2,4-oxadiazol-3-yl)-2-phenoxy-N-phenyl-benzenesulfonamide]: 10 to 30% and 30 to 50%.
The matching figures for `CCCCNc1cc(C(=O)O)cc(S(C)(=N)=O)c1Oc1ccccc1` (centres unmarked) [Compound 130, 3-(butylamino)-5-(methylsulfonimidoyl)-4-phenoxy-benzoic acid]: 10 to 30% and 50 to 75%.
The matching figures for `CCCCN=S(C)(=O)c1cc(C(=O)O)cc(NCCCC)c1Oc1ccccc1` (centres unmarked) [Compound 131, 3-(butylamino)-5-(N-butyl-S-methyl-sulfonimidoyl)-4-phenoxy-benzoic acid]: 30 to 50% and ≥ 75%.
For `CN=S(C)(=O)c1cc(C(=O)OC)cc(N)c1Oc1ccccc1` (centres unmarked) [Compound 132, methyl 3-amino-5-(N,S-dimethylsulfonimidoyl)-4-phenoxy-benzoate], the inhibition at 2 µM lay in the range of 30 to 50% and the inhibition at 20 µM was 10 to 30%.
The matching figures for `CCCCNc1cc(C(=O)OC)cc(S(C)(=O)=NC)c1Oc1ccccc1` (centres unmarked) [Compound 133, methyl 3-(butylamino)-5-(N,S-dimethylsulfonimidoyl)-4-phenoxy-benzoate]: 30 to 50% and 10 to 30%.
On the same counts, the results for `CCCCNc1cc(C(=O)O)cc(S(C)(=O)=NC)c1Oc1ccccc1` (centres unmarked) [Compound 134, 3-(butylamino)-5-(N,S-dimethylsulfonimidoyl)-4-phenoxy-benzoic acid] are 30 to 50% and 50 to 75%.
